Laboratory results: patent US12187706B2, “NLRP3 modulators” (INNATE TUMOR IMMUNITY, INC., priority 2019, dated 2025)

Each compound was assayed against T1, NLRP3 (Homo sapiens, UniProt Q96P20) (assay: Measurement of IL-1β production in PMA-differentiated THP-1 cells (NLRP3 hIL1B)).
T1 construct: host or cells: PMA-differentiated THP-1 cells
T1 sequence (Q96P20 whole entry): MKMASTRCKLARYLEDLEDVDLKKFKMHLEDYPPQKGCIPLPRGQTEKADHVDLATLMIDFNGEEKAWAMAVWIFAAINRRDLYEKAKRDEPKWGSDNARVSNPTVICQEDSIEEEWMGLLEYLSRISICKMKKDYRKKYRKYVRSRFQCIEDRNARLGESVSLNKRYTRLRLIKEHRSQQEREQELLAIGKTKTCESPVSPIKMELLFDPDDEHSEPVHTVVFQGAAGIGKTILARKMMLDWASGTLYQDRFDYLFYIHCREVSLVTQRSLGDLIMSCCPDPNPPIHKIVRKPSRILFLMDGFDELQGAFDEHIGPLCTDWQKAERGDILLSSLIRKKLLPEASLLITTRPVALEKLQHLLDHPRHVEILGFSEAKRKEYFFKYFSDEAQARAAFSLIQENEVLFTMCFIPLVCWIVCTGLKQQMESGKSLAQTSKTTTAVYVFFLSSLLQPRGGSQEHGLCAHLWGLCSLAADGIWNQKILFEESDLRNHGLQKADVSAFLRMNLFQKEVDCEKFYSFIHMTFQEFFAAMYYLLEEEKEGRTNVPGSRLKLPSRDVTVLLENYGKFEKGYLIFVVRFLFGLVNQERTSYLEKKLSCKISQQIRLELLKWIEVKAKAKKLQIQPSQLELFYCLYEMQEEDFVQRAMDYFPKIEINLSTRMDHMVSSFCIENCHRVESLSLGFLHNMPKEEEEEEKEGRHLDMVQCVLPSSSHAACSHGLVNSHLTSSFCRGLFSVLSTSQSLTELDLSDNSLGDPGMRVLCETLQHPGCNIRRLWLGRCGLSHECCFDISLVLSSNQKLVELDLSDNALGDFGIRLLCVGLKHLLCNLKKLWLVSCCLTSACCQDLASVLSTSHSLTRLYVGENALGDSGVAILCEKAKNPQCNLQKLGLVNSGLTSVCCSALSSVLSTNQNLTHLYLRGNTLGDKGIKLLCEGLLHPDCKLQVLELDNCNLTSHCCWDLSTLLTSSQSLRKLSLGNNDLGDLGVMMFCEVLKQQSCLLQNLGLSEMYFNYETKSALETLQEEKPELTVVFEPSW
Type: cell-based
Procedure: Measurement of IL-1β Production in PMA-Differentiated THP-1 Cells
THP-1 cells were purchased from the American Type Culture Collection and sub-cultured according to instructions from the supplier. Prior to experiments, cells were cultured in RPMI 1640 containing 10% heat inactivated FBS, penicillin (100 units/ml) and streptomycin (100 μg/ml), and maintained in log phase prior to experimental setup. Prior to the experiment THP-1 were treated with PMA (Phorbol 12-myristate 13-acetate) (10 μg/ml) for 24 hours. The day of the experiment the media was removed and attaching cells were treated with trypsin for 2 minutes, cells were then collected, washed with PBS (phosphate buffer saline), spin down, resuspended in 2% heat inactivated FBS with RPMI at a concentration of 1×10^6 cells/ml, and 100 μl was plated in a 96 well plate. Compounds were dissolved in dimethyl sulfoxide (DMSO) and added to the culture medium to achieve desired concentration (e.g. 100, 30, 10, 3, 1, 0.3 or 0.1 μM). Cells were incubated with compounds for 4 hours. Cell free supernatant was collected and the production of IL-1β was evaluated by ELISA. A vehicle only control was run concurrently with each experiment. Final DMSO concentration was 1%.
Measurement of IL-1β Production in PMA-Differentiated THP-1 Cells (Alternative Procedure)
THP-1 cells were purchased from the American Type Culture Collection and sub-cultured according to instructions from the supplier. Prior to experiments, cells were cultured in RPMI 1640 containing 10% heat inactivated FBS, penicillin (100 units/ml), streptomycin (100 μg/ml), HEPES (10 mM) and sodium pyruvate (1 mM) and maintained in log phase prior to experimental setup. Prior to the experiment, THP-1 cells were treated with PMA (Phorbol 12-myristate 13-acetate) (20 μg/ml) overnight. The day of the experiment, the media was removed and attached cells were treated with trypsin for 2 minutes, cells were then collected, washed with PBS (phosphate buffer saline), pelleted by centrifugation and resuspended in 2% heat inactivated FBS with RPMI at a concentration of 50,000 cells/well in a 384 well plate. Cell free supernatant was collected and the production of IL-1β was evaluated by ELISA. Compounds were dissolved in dimethyl sulfoxide (DMSO) and added to the culture medium to achieve desired concentration (e.g. 100, 30, 10, 3, 1, 0.3 or 0.1 μM). Cells were incubated with compounds for 2 hours. A vehicle only control was run concurrently with each experiment. Final DMSO concentration was 1%.
Measurement of IL-1β Production—hTRF Protocol (Second Alternative Procedure)
Serial dilutions of compounds in DMSO were added to low volume 384 well plates at 100 nl/well using an ECHO 550 acoustic dispenser (Labcyte) to achieve final starting concentration of 10 μM in assay.
THP-1 cells in RPMI (Gibco, 11875) media with 10% FBS at a density of 1×10^6 cell/ml in a T175 flask were treated with a final concentration of phorbol 12-myristate 13-acetate (PMA) (Sigma, P1585) of 50 ng/ml overnight at 37° C. at 5% CO2 for differentiation. Cells were harvested the next day after rinsing well with dPBS using 0.5% trypsin. A cell solution was prepared of 1×10^6 cells/ml for 50,000 cells in 50 μl/well in RPMI media with 2% FBS. Cells were plated using a multichannel pipette onto the compound dilutions in Greiner, 384 well, black clear bottom tissue culture treated plates (781090). The plates were incubated in 37° C. incubator at 5% CO2 for 2 hours.
After the 2 hour incubation, the cell plates were spun in the centrifuge for 5 minutes at 1200 rpm. Using the Felix (CyBio), 8 μl of the supernatant was transferred to 384 well, low volume, white proxy plates. (Perkin Elmer, 6008230). A human IL1beta hTRF kit was used to analyze the supernatant (CISBIO, 62HIL1BPEG). The kit instructions were followed for preparing the IL1Beta standard curve and then the antibodies from the kit were diluted 1:40 rather than 1:20 as kit instructed.
An EC50 of 2150 nM was found for `CC(C)(O)C(O)CNc1nc(N)nc2cc(-c3ccn[nH]3)ccc12` (racemic) [Example 8, rac-1-((2-amino-7-(1H-pyrazol-5-yl)quinazolin-4-yl)amino)-3-methylbutane-2,3-diol] in this work. An EC50 of 4890 nM was found for `CCn1cc(CNc2nc(N)nc3cc(-c4ccn[nH]4)ccc23)nn1` [Example 190] in this work. An EC50 of 500 nM was found for `Nc1nc(Nc2cc(CCO)[nH]n2)c2ccc(-c3ccn[nH]3)cc2n1` [Example 116] in this work. An EC50 of 270 nM was found for `Nc1nc(NCc2ccccn2)c2ccc(-c3ccn[nH]3)cc2n1` [Example 171] in this work. An EC50 of 2600 nM was found for `COCCN1CCCC1CNc1nc(N)nc2cc(-c3ccn[nH]3)ccc12` (stereo not shown) [Example 172] in this work. An EC50 of 880 nM was found for `COC(CO)CNc1nc(N)nc2cc(-c3ccn[nH]3)ccc12` (single isomer, unassigned) [Example 202, 3-((2-amino-7-(1H-pyrazol-5-yl)quinazolin-4-yl)amino)-2-methoxypropan-1-ol] in this work. An EC50 of 3920 nM was found for `Nc1nc(N[C@H]2COC[C@@H](O)C2)c2ccc(-c3ccn[nH]3)cc2n1` (single isomer, unassigned) [Example 12] in this work. An EC50 of 4420 nM was found for `Cn1ccnc1C(O)CNc1nc(N)nc2cc(-c3ccn[nH]3)ccc12` (single isomer, unassigned) [Example 149, 2-((2-amino-7-(1H-pyrazol-5-yl)quinazolin-4-yl)amino)-1-(1-methyl-1H-imidazol-2-yl)ethan-1-ol] in this work. An EC50 of 370 nM was found for `Nc1nc(Nc2cnoc2)c2ccc(-c3ccn[nH]3)cc2n1` [Example 114] in this work. An EC50 of 1440 nM was found for `COc1cc(-c2cc[nH]n2)cc2nc(N)nc(NCc3cncnc3)c12` [Example 135] in this work. An EC50 of 3000 nM was found for `Nc1nc(NOCCO)c2ccc(-c3ccn[nH]3)cc2n1` [Example 186] in this work. An EC50 of 200 nM was found for `Nc1nc(NCc2ncccc2F)c2ccc(-c3ccn[nH]3)cc2n1` [Example 170] in this work. An EC50 of 740 nM was found for `Nc1nc(N[C@H]2CCC[C@H]2O)c2ccc(-c3ccn[nH]3)cc2n1` [Example 66] in this work. An EC50 of 780 nM was found for `Nc1nc(N[C@H]2CCC[C@@H](O)C2)c2c(F)cc(-c3cc[nH]n3)cc2n1` (racemic) [Example 16, cis-3-((2-amino-5-fluoro-7-(1H-pyrazol-3-yl)quinazolin-4-yl)amino)cyclohexan-1-ol] in this work. An EC50 of 2240 nM was found for `CN(C)CC(O)CNc1nc(N)nc2cc(-c3ccn[nH]3)ccc12` (stereo not shown) [Example 40] in this work. An EC50 of 1240 nM was found for `CN(C)c1ccc(CNc2nc(N)nc3cc(-c4ccn[nH]4)ccc23)nn1` [Example 164, N4-((6-(dimethylamino)pyridazin-3-yl)methyl)-7-(1H-pyrazol-5-yl)quinazoline-2,4-diamine] in this work. An EC50 of 90 nM was found for `Nc1nc(NCc2cccnc2)c2ccc(-c3ccn[nH]3)cc2n1` [Example 144] in this work. An EC50 of 300 nM was found for `Nc1nc(N[C@@H]2CCC[C@@H]2O)c2ccc(-c3ccn[nH]3)cc2n1` [Example 30] in this work. An EC50 of 1590 nM was found for `Nc1nc(N[C@H]2C[C@@H](O)C2)c2ccc(-c3ccn[nH]3)cc2n1` [Example 158] in this work. An EC50 of 1200 nM was found for `Cc1noc(C)c1CNc1nc(N)nc2cc(-c3ccn[nH]3)ccc12` [Example 81] in this work. An EC50 of 9860 nM was found for `Nc1nc(NCCCO)c2c(-c3cc[nH]n3)cc(-c3cc[nH]n3)cc2n1` [Example 19, 3-((2-amino-5,7-di(1H-pyrazol-3-yl)quinazolin-4-yl)amino)propan-1-ol] in this work. An EC50 of 600 nM was found for `Nc1nc(NCc2cc[nH]n2)c2c(F)cc(-c3cc[nH]n3)cc2n1` [Example 124] in this work. An EC50 of 1110 nM was found for `Nc1nc(NCCc2ccccn2)c2c(F)cc(-c3cc[nH]n3)cc2n1` [Example 122] in this work. An EC50 of 500 nM was found for `Nc1nc(NCC#CCO)c2ccc(-c3ccn[nH]3)cc2n1` [Example 106] in this work. An EC50 of 8480 nM was found for `Cn1cnc(CNc2nc(N)nc3cc(-c4ccn[nH]4)ccc23)c1` [Example 146] in this work. An EC50 of 240 nM was found for `Nc1nc(NCCCO)c2c(F)cc(-c3ccn[nH]3)cc2n1` [Example 15, 3-((2-amino-5-fluoro-7-(1H-pyrazol-3-yl)quinazolin-4-yl)amino)propan-1-ol] in this work. An EC50 of 210 nM was found for `Nc1nc(N[C@@H]2CC[C@@H](O)C2)c2ccc(-c3ccn[nH]3)cc2n1` [Example 46] in this work. An EC50 of 860 nM was found for `CCCC(CCO)Nc1nc(N)nc2cc(-c3ccn[nH]3)ccc12` (single isomer, unassigned) [Example 98, 3-((2-amino-7-(1H-pyrazol-5-yl)quinazolin-4-yl)amino)hexan-1-ol] in this work. An EC50 of 180 nM was found for `CC(C)(C)CNc1nc(N)nc2cc(-c3ccn[nH]3)ccc12` [Example 181] in this work. An EC50 of 420 nM was found for `Nc1nc(NCCc2cccnc2)c2ccc(-c3ccn[nH]3)cc2n1` [Example 153] in this work. An EC50 of 460 nM was found for `C[C@]1(O)C[C@@H](Nc2nc(N)nc3cc(-c4ccn[nH]4)ccc23)C1` [Example 191, (cis)-3-((2-amino-7-(1H-pyrazol-5-yl)quinazolin-4-yl)amino)-1-methylcyclobutan-1-ol] in this work. An EC50 of 830 nM was found for `CCCCC(CCO)Nc1nc(N)nc2cc(-c3ccn[nH]3)ccc12` (single isomer, unassigned) [Example 101, 3-((2-amino-7-(1H-pyrazol-5-yl)quinazolin-4-yl)amino)heptan-1-ol] in this work. An EC50 of 230 nM was found for `Nc1nc(NCc2ccn(-c3ccccn3)n2)c2ccc(-c3ccn[nH]3)cc2n1` [Example 187] in this work. An EC50 of 180 nM was found for `COCCCNc1nc(N)nc2cc(-c3ccn[nH]3)ccc12` [Example 94] in this work. An EC50 of 810 nM was found for `Nc1nc(NC[C@H]2C[C@@H](O)C2)c2ccc(-c3ccn[nH]3)cc2n1` [Example 166] in this work. An EC50 of 170 nM was found for `N#C[C@H]1CC[C@H](Nc2nc(N)nc3cc(-c4ccn[nH]4)ccc23)C1` (single isomer, unassigned) [Example 185, (trans)-3-((2-amino-7-(1H-pyrazol-5-yl)quinazolin-4-yl)amino)cyclopentane-1-carbonitrile] in this work. An EC50 of 640 nM was found for `Nc1nc(N[C@@H]2CC[C@@H](O)[C@@H]2O)c2ccc(-c3ccn[nH]3)cc2n1` (racemic) [Example 110] in this work. An EC50 of 1300 nM was found for `CC(C)(CO)CCCNc1nc(N)nc2cc(-c3ccn[nH]3)ccc12` [Example 91] in this work. An EC50 of 640 nM was found for `Nc1nc(NCc2ccno2)c2ccc(-c3ccn[nH]3)cc2n1` [Example 71] in this work. An EC50 of 760 nM was found for `Nc1nc(NCC(O)CC(F)(F)F)c2ccc(-c3ccn[nH]3)cc2n1` (stereo not shown) [Example 41] in this work. An EC50 of 5520 nM was found for `Cn1cncc1CNc1nc(N)nc2cc(-c3ccn[nH]3)ccc12` [Example 75] in this work. An EC50 of 210 nM was found for `Nc1nc(NCC2(CN3CCCC3)CC2)c2ccc(-c3cc[nH]n3)cc2n1` [Example 194] in this work. An EC50 of 460 nM was found for `CC(C)(O)CCNc1nc(N)nc2cc(-c3ccn[nH]3)ccc12` [Example 89] in this work. An EC50 of 1750 nM was found for `Nc1nc(N[C@H]2CC[C@@H](CO)C2)c2ccc(-c3ccn[nH]3)cc2n1` [Example 63] in this work. An EC50 of 2230 nM was found for `Nc1nc(Nc2ccon2)c2ccc(-c3ccn[nH]3)cc2n1` [Example 113] in this work. An EC50 of 2140 nM was found for `Nc1nc(N[C@@H]2COCC[C@H]2O)c2ccc(-c3ccn[nH]3)cc2n1` [Example 138] in this work. An EC50 of 650 nM was found for `Nc1nc(N[C@@H]2C[C@H]2c2cccnc2)c2ccc(-c3ccn[nH]3)cc2n1` (single isomer, unassigned) [Example 163, 7-(1H-pyrazol-5-yl)-N4-((trans)-2-(pyridin-3-yl)cyclopropyl)quinazoline-2,4-diamine] in this work. An EC50 of 5530 nM was found for `Nc1nc(NC(CO)c2nccs2)c2ccc(-c3ccn[nH]3)cc2n1` (stereo not shown) [Example 35] in this work. An EC50 of 460 nM was found for `Nc1nc(NCc2cncnc2)c2ccc(-c3ccn[nH]3)cc2n1` [Example 49] in this work. An EC50 of 180 nM was found for `Nc1nc(NCc2cnsc2)c2ccc(-c3ccn[nH]3)cc2n1` [Example 174] in this work. An EC50 of 1320 nM was found for `Nc1nc(NCc2ncc[nH]2)c2ccc(-c3ccn[nH]3)cc2n1` [Example 39] in this work. An EC50 of 160 nM was found for `Nc1nc(N[C@H]2C[C@H](O)C2)c2ccc(-c3ccn[nH]3)cc2n1` [Example 154] in this work.
